The subject of one assay is HaCaT cells. The experiment in a line: Calcium imaging in HaCaT cells. It is filed as cell-based, human. To be noted: for effect of blocker on Sandalore-induced calcium signals: HaCaT cells, EGTA 10 mM calcium-free, SQ-22536 100 μM, MDL-12330A 40 μM, U-73122 10 μM, L-cis-diltiazem 150 μM; for increase of the first amplitude induced by Sandalore after preincubation with gap junction blocker: HaCaT, 1-octanol 500 μM or carbenoxolone 10 μM, Sandalore 500 μM. The protocol:
In the fourth application, saturation occurred at approx. 500 μM (FIG. 9d). The ECR50R value was 430 μM of Sandalore® in the first application and 112 μM of Sandalore® in the fourth application.
The Sandalore®-induced signal cascade in HaCaT cells and primary keratinocytes was pharmacologically characterized using the calcium imaging technique and specific blockers of signal cascade proteins. An investigation was first conducted in order to determine whether the calcium signals are caused by calcium inflow from the extracellular space. For this purpose, a calcium-free extracellular solution was used with a calcium chelator (EGTA) added. […] In order to investigate the role of adenylyl cyclase, the specific blockers SQ-22536 and MDL-12330A were used. […] The efficacy of the blockers was tested in this case with histamine, which activated the PLC signalling pathway (FIG. 11c). […]
In order to characterize the antagonists, HaCaT cells were first repeatedly stimulated with Sandalore® (1 mM). On the third application, costimulation (1:1) with Sandalore® and one of the antagonists took place. […] Based on this, dose-dependent characterization of inhibition was to be carried out. For this purpose, Sandalore® and the antagonists were costimulated with different concentrations.
(§1) Effect of the OR2AT4 ligand Sandalore® on intracellular calcium concentration of cultivated keratinocytes. […] 100 μM of ATP was used at the end of each measurement as a positive control stimulus. Right: Quantitative evaluation of calcium signals in 4-time application of Sandalore® (500 μM). Shown are the mean values of the individual applications including standard error. Mann-Whitney U test. *: p<0.05. C) and D): dose-dependent activation of HaCaT cells in calcium imaging experiments. Shown are the mean amplitudes including standard error at various concentrations in the first (C) and fourth (D) Sandalore® application. Number of cells measured: 0.0125 mM (39), 0.025 mM (30), 0.1 mM (46), 0.5 mM (34), 1 mM (63), 2 mM (41), 10 mM (36).
(§2) A) Representative calcium imaging traces of HaCaT cells (left) and primary keratinocytes (right) incubated with the gap junction blocker 1-octanol (500 μM) and then repeatedly stimulated with Sandalore® (500 μM, horizontal bars) (blue trace). […] 100 μM of ATP was used at the end of each measurement as a positive control stimulus. Quantitative evaluation of HaCaT cells (B) and primary keratinocytes (C) incubated with the gap junction blockers 1-octanol (500 μM) or carbenoxolone (10 μM) and then repeatedly stimulated with Sandalore® (500 μM) or Lyral (1 mM) in calcium imaging experiments. Shown are the mean values of the individual applications including standard error relative to the control measurements (Sandalore® application without blocker). Mann-Whitney U test. Number of cells measured: Sandalore®+1-octanol (HaCaT (110), keratinocytes (26)); Sandalore®+carbenoxolone: HaCaT (74); Lyral+carbenoxolone: HaCaT (43). ***: p<0.001.
Pharmacological characterization of Sandalore®-induced signal cascade in human keratinocytes. A)-D). Shown are representative calcium imaging traces of primary keratinocytes in the presence of a blocker (blue). The horizontal bars correspond to the application times. 100 μM of ATP was used at the end of each measurement as a positive control stimulus. A) Measurement with calcium-free extracellular solution (+10 mM EGTA). B) Measurement with the adenylyl cyclase blocker SQ-22536 (100 μM). C) Use of the phospholipase-C blocker U-73122 (10 μM). 100 μM of histamine was taken as a positive control. D) Measurement with the CNG channel blocker L-cis-diltiazem (150 μM). E) Overview of pharmacological measurement of HaCaT cells and primary keratinocytes (Kera). The mean amplitudes relative to the control measurements (dashed line) are indicated. MDL-12330A (40 μM). […]

The subject of another assay is primary keratinocytes. The experiment in a line: Calcium imaging in primary keratinocytes. It is filed as cell-based, human. To be noted: for effect of blocker on Sandalore-induced calcium signals: primary keratinocytes, EGTA 10 mM calcium-free, SQ-22536 100 μM, MDL-12330A 40 μM, U-73122 10 μM, L-cis-diltiazem 150 μM.
Description: The Sandalore®-induced signal cascade in HaCaT cells and primary keratinocytes was pharmacologically characterized using the calcium imaging technique and specific blockers of signal cascade proteins. An investigation was first conducted in order to determine whether the calcium signals are caused by calcium inflow from the extracellular space. For this purpose, a calcium-free extracellular solution was used with a calcium chelator (EGTA) added. […] In order to investigate the role of adenylyl cyclase, the specific blockers SQ-22536 and MDL-12330A were used. […] The efficacy of the blockers was tested in this case with histamine, which activated the PLC signalling pathway (FIG. 11c).
as §1, §2
Pharmacological characterization of Sandalore®-induced signal cascade in human keratinocytes. A)-D). Shown are representative calcium imaging traces of primary keratinocytes in the presence of a blocker (blue). The horizontal bars correspond to the application times. 100 μM of ATP was used at the end of each measurement as a positive control stimulus. A) Measurement with calcium-free extracellular solution (+10 mM EGTA). B) Measurement with the adenylyl cyclase blocker SQ-22536 (100 μM). C) Use of the phospholipase-C blocker U-73122 (10 μM). 100 μM of histamine was taken as a positive control. D) Measurement with the CNG channel blocker L-cis-diltiazem (150 μM). E) Overview of pharmacological measurement of HaCaT cells and primary keratinocytes (Kera). The mean amplitudes relative to the control measurements (dashed line) are indicated. MDL-12330A (40 μM). EGTA: calcium-free Ringer (HaCaT n=46, Kera n=52), SQ: SQ-22536 (HaCaT n=60, Kera n=26), MDL: MDL-12330A (HaCaT n=69, Kera n=24), U-73122 (HaCaT n=41, Kera n=25), L-cis-D.: L-cis-diltiazem (HaCaT n=41, Kera n=25). Mann-Whitney U test. ***: p<0.001. F) Determination of the cAMP contents of HaCaT cells after stimulation with Sandalore® by means of cAMP-Glo™ assays. The dots show the mean cAMP content including standard error after 10-minute Sandalore® stimulation (1 μM-10,000 μM). Significance was determined between HaCaT cells stimulated with Sandalore® and stimulated with an equivalent volume of DMSO (0.2%). Kruskal-Wallis Test with multiple comparison; n=3 experiments. *: p<0.05.

For assay [1], the target named is T1, recombinantly expressed OR2AT4 (Homo sapiens, UniProt A6NND4).
T1 construct: expressed in transfected cells; host or cells: Hana3A cells, transient transfection with pcDNA3-OR2AT4 by the calcium phosphate method
T1 sequence (A6NND4 1-320): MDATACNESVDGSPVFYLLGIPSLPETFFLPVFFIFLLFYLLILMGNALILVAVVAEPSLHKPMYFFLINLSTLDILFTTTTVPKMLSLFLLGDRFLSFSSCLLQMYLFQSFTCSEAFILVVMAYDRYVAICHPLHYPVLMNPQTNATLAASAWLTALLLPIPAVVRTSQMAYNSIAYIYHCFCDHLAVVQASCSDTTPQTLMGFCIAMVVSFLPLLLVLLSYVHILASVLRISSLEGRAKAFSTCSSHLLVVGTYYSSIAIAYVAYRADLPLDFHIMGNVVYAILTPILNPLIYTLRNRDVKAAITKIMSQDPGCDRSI
Kind of assay: Calcium imaging of transiently OR2AT4-transfected Hana3A cells. It is filed as cell-based. The protocol: Hana3A cells expressing stable endogenous olfactory transduction factors, which specifically target the incorporation of ORs into the cell membrane and thus improve activation capacity, were used as a heterologous expression system. Moreover, the 20 first N-terminal amino acids of rhodopsins (Rho-tag) were added before the N-terminus of the coding sequence of the OR, also in order to support heterologous expression.
A method established at the Department of Cell Physiology of Ruhr University Bochum for deorphanization studies is calcium imaging, in which activation of an OR by an odorant is visualized by a change in the intracellular calcium concentration of transfected cells using a fluorescent dye [cf. Wetzel et al. in: J. Neurosci. 19, pp. 7426-7433 (1999); Spehr et al. in: Science 299, pp. 2054-2058 (2003); Neuhaus et al. in: J. Biol. Chem. 284, pp. 16218-16225 (2009)]. In this method, the Hana3A cells are briefly (20 s) stimulated with an odorant and selected for odorant screenings of high concentrations (up to 1 mM) in order to confirm activation of ORs weakly expressed in Hana3A cells.
The activation of OR2AT4 by Sandalore® was first investigated by the calcium imaging method.
Odorants can not only activate a receptor, but can also act as antagonists to an OR.
Determination of receptive field of recombinantly expressed OR2AT4. […] As a control, untransfected Hana3A cells were simulated with Sandalore®. 100 μM of ATP was used at the end of each measurement as a positive control stimulus. […] The mean response rate including standard error of the cells is shown relative to the Ringer control. […] Isobornyl.: isobornyl cyclohexanol; S. öl: sandalwood oil. Kruskal-Wallis test with multiple comparison. *: p<0.05. […] Significance was determined between Hana3A cells transfected with OR2AT4-pcDNA3 and pcDNA3 without an insert. The dots show mean normalized luciferase-activity including standard error. Mann-Whitney U test; n=3 experiments. *: p<0.05; **: p<0.01; ***: p<0.001.
Antagonists of recombinantly expressed OR2AT4. […] 100 μM of ATP was used at the end of each measurement as a positive control stimulus. […] The mean response rate including standard error of the cells is shown relative to the Ringer control. Number of measurements: Ringer (23), Sandalore® (22), Sandalore®+dimetol (11), dimetol (11), Phenirat (14), Sandalore®+Phenirat (22), Oxyphenylon (12), and Sandalore®+Oxyphenylon (20). S: Sandalore®. Kruskal-Wallis test with multiple comparison. *: p<0.05.

The results in this text go back to patent US10835500B2, “Medicament for accelerated wound healing” (Symrise AG, priority 2014, dated 2020).

Regarding `COc1ccc([C@H]2Sc3ccccc3N(CCN(C)C)C(=O)[C@H]2OC(C)=O)cc1` (relative stereo) [L-cis-diltiazem], the “effect of blocker on Sandalore-induced calcium signals” value in the assay on HaCaT cells and with primary keratinocytes was “significantly reduced” each time.

`CCCCCCCCO` [1-octanol]: the “increase of the first amplitude induced by Sandalore after preincubation with gap junction blocker” value is recorded as “approx. 400%” in the assay with HaCaT cells and approximately 1000% with primary keratinocytes (keratinocytes, 1-octanol 500 μM, Sandalore 500 μM). For `O=C(O)CN(CCOCCOCCN(CC(=O)O)CC(=O)O)CC(=O)O` [EGTA], the “effect of blocker on Sandalore-induced calcium signals” value with HaCaT cells and in the assay on primary keratinocytes was “significantly reduced” in each case. For `CC1=CCC(/C=C\C(C)C(C)O)C1(C)C` (stereo not shown) [Ebanol], the “response rate of the Hana3A cells relative to the Ringer control” value in assay [1] (1 mM odorant, 20 s stimulation, OR2AT4-transfected Hana3A cells) was “only Brahmanol showed an increased response rate”.

As for `CC(C)(O)CCCC1=CCC(C=O)CC1` (stereo not shown) [Lyral], the “odorant-induced calcium signals in skin cells” value in the assay on HaCaT cells (Lyral 1 mM) is reported as “induces calcium signals in skin cells”.

Regarding `Cl.c1ccc(C2CCCC2NC2=NCCCCCCCCCCC2)cc1` (stereo not shown) [MDL-12330A], the “effect of blocker on Sandalore-induced calcium signals” value in the assay on HaCaT cells and in the assay on primary keratinocytes was “significant reduction” in each case.

On to `Nc1ncnc2c1ncn2C1CCCO1` (stereo not shown) [SQ-22536], for which the “effect of blocker on Sandalore-induced calcium signals” value in the assay with HaCaT cells and in the assay on primary keratinocytes was “significant reduction” throughout.

With `COc1ccc2c(c1)CC[C@@H]1[C@@H]2CC[C@]2(C)[C@@H](NCCCCCCN3C(=O)C=CC3=O)CC[C@@H]12` [U-73122], the “effect of blocker on Sandalore-induced calcium signals” value in the assay with HaCaT cells and in the assay with primary keratinocytes was “no effect” throughout.

In the case of `CC1(C)[C@@H](OC(=O)CCC(=O)O)CC[C@]2(C)[C@H]3C(=O)C=C4[C@@H]5C[C@@](C)(C(=O)O)CC[C@]5(C)CC[C@@]4(C)[C@]3(C)CC[C@@H]12` [carbenoxolone], the “increase of the first amplitude induced by Sandalore after preincubation with gap junction blocker” value with HaCaT cells is reported as “the same result”. Further, the “effect on the Lyral-induced response pattern” value in the assay on HaCaT cells (pre-incubation with blocker 10 μM, Lyral 1 mM) is given as “No effect”. For the compound `CC(C)CCCC(C)(C)O` [dimetol], the “effect on Sandalore-induced calcium signals in coapplication” value in assay [1] (coapplication with Sandalore 1:1, 1 mM respectively) is “no effect”. Further, the “effect of the odorant alone on the Hana3A cells” value in assay [1] (odorant alone, 1 mM) is on record as “no effect”. In addition, the “effect on Sandalore-induced calcium signals on coapplication” value in the assay on HaCaT cells (third application, costimulation 1:1 with Sandalore 1 mM) was “only slightly reduced”.
